# In US10844058B2, “Valbenazine salts and polymorphs thereof” (Neurocrine Biosciences, Inc., priority 2015, dated 2020):
# Read-outs that look alike come from different tables or passages of the source.
# Key:
# Format in all cases: physicochemical
# [1] = Long-term and accelerated stability studies of Form I (Example 6)
# Procedure: The storage conditions include the long-term storage condition of 25±2° C./60±5% RH, the intermediate storage condition of 30±2° C./65±5% RH, and the accelerated storage condition of 40±±2° C./75±±5% RH.
# [2] = Solubility of Formula I Form I in solvents, gravimetric analysis of mother liquors (Example 1); conditions: organic solvent or mixture, thermodynamic from solid
# Procedure: The solubility was calculated by gravimetric analysis after evaporation of the mother liquors collected.
# [3] = Gravimetric vapour sorption (GVS)
# Procedure: The Gravimetric sorption isotherms were obtained using a Hiden IGASorp moisture sorption analyser, controlled by CFRSorp software. The sample temperature was maintained at 25° C. by a Huber re-circulating water bath. The humidity was controlled by mixing streams of dry and wet nitrogen, with a total flow rate of 250 ml/min. The relative humidity (RH) was measured by a calibrated Vaisala RH probe (dynamic range of 0-95% RH), located near the sample. The weight change, (mass relaxation) of the sample as a function of % RH was constantly monitored by the microbalance (accuracy 0.001 mg). Typically 10-20 mg of sample was placed in a tared mesh stainless steel basket at room temperature. The sample was loaded and unloaded at 40% RH and 25° C. (typical room conditions). The standard isotherm was performed at 25° C. at 10% RH intervals over a 0-90% RH range.
# [4] = Solubility of Form I in organic solvents by HPLC (Example 4); conditions: 22 °C, thermodynamic from solid
# Procedure: (§1) The vials were shaken. After 1 hr, a sample (˜0.5 ml) was removed via syringe, and filtered through a syringe filter (0.2 micron) into a second vial. 200 μl of each solution was then transferred into an HPLC vial and made up to 1 ml by adding 800 μl of diluent. These samples were analyzed directly by HPLC, and the response was outside the linearity range. Therefore a second dilution was performed, taking 0.1 ml of each sample and making up to 2 ml with diluent. The samples were re-analyzed by HPLC. Then after shaking the suspensions for 18 hours in total, a second sample was taken as above. All samples were then diluted and analyzed by HPLC, as above. The temperature was noted (22° C.), and no gelling was observed.
# The above procedure was repeated but using 8 different organic solvents in place of the aqueous media (analysis only after 18 hrs). Solvents used were acetonitrile, diethyl ether, ethanol, ethyl acetate, isopropanol, methanol, heptane and THF. All solvents gave suspensions at 100 mg/ml, except methanol which dissolved at 100 mg in 0.3 ml. […] These experiments were sampled once after 18 hours of slurrying.
# [5] = Stability to humidity on storage (form by XRPD)
# [6] = Thermodynamic aqueous solubility; conditions: water, 25 °C, water, thermodynamic from solid, water, 25° C., 24 hours; at the pH of the next column; read-out: Aqueous solubility mg/mL free form
# Procedure: The suspension was equilibrated at 25° C. for 24 hours then the pH was measured. The suspension was then filtered through a glass fibre C filter. […] Different volumes of the standard, diluted and undiluted sample solutions were injected.
# [7] = Solubility of Form I in aqueous media by HPLC (Example 4); conditions: thermodynamic from solid, 22° C.
# Procedure: as §1
# [8] = aqueous media, aqueous buffer, Aqueous pH 6.8
# [9] = aqueous media, simulated gastric fluid, Aqueous pH 1.2
# [10] = aqueous medium, aqueous buffer, Aqueous pH 4
# [11] = aqueous medium, aqueous buffer, Aqueous pH 5
smiles,measurement,setting,value
"COc1cc2c(cc1OC)[C@H]1C[C@@H](OC(=O)[C@@H](N)C(C)C)[C@H](CC(C)C)CN1CC2.Cc1ccc(S(=O)(=O)O)cc1.Cc1ccc(S(=O)(=O)O)cc1 [Form I, (S)-(2R,3R,11bR)-3-isobutyl-9,10-dimethoxy-2,3,4,6,7,11b-hexahydro-1H-pyrido[2,1-a]isoquinolin-2-yl 2-amino-3-methylbutanoate di(4-methylbenzenesulfonate)]",Stability on storage,[1]; about 25° C. and about 60% relative humidity for about 24 months,stable
same,Stability on storage,[1]; about 40° C. and about 75% relative humidity for about 6 months,stable
same,Stability on storage,"[1]; accelerated storage condition 40° C./75% RH, 3 months",chemical and physical stability
same,Stability on storage,"[1]; long-term storage condition 25° C./60% RH, up to 3 months",chemical and physical stability
same,solubility,"[2]; 55 °C, MeOH (boiling point 65), 10° C. below reflux, read-out: Solubility at high temperature",> 250000 µg/mL
same,solubility,"[2]; 56 °C, THF (boiling point 66), 10° C. below reflux, read-out: Solubility at high temperature",6000 µg/mL
same,solubility,"[2]; 67 °C, Ethyl Acetate (boiling point 77), 10° C. below reflux, read-out: Solubility at high temperature",2000 µg/mL
same,solubility,"[2]; 68 °C, EtOH (boiling point 78), 10° C. below reflux, read-out: Solubility at high temperature",212000 µg/mL
same,solubility,"[2]; 70 °C, MEK (boiling point 80), 10° C. below reflux, read-out: Solubility at high temperature",4000 µg/mL
same,solubility,"[2]; 71 °C, Acetonitrile (boiling point 81), 10° C. below reflux, read-out: Solubility at high temperature",48000 µg/mL
same,solubility,"[2]; 79 °C, IPA (boiling point 89), 10° C. below reflux, read-out: Solubility at high temperature",22000 µg/mL
same,solubility,"[2]; 79 °C, Isopropyl Acetate (boiling point 89), 10° C. below reflux, read-out: Solubility at high temperature",4000 µg/mL
same,solubility,"[2]; 88 °C, 1-propanol (boiling point 98), 10° C. below reflux, read-out: Solubility at high temperature",160000 µg/mL
same,solubility,"[2]; 107 °C, MIBK (boiling point 117), 10° C. below reflux, read-out: Solubility at high temperature",5000 µg/mL
same,solubility,"[2]; 1-propanol, 5° C., read-out: Solubility at 5° C. temperature",8000 µg/mL
same,solubility,"[2]; Acetone, 5° C., read-out: Solubility at 5° C. temperature",5000 µg/mL
same,solubility,"[2]; Acetonitrile, 5° C., read-out: Solubility at 5° C. temperature",17000 µg/mL
same,solubility,"[2]; EtOH, 5° C., read-out: Solubility at 5° C. temperature",24000 µg/mL
same,solubility,"[2]; Ethyl Acetate, 5° C., read-out: Solubility at 5° C. temperature",1000 µg/mL
same,solubility,"[2]; IPA, 5° C., read-out: Solubility at 5° C. temperature",5000 µg/mL
same,solubility,"[2]; Isopropyl Acetate, 5° C., read-out: Solubility at 5° C. temperature",4000 µg/mL
same,solubility,"[2]; MEK, 5° C., read-out: Solubility at 5° C. temperature",3000 µg/mL
same,solubility,"[2]; MIBK, 5° C., read-out: Solubility at 5° C. temperature",6000 µg/mL
same,solubility,"[2]; MeOH, 5° C., read-out: Solubility at 5° C. temperature",> 250000 µg/mL
same,solubility,"[2]; THF, 5° C., read-out: Solubility at 5° C. temperature",4000 µg/mL
same,Stability to humidity GVS uptake,[3]; 25° C.,1.0%
same,GVS mass increase,"[3]; relative humidity from about 0% to about 95%, di(4-methylbenzenesulfonate)",less than 1%
same,solubility at 18 h,"[4]; organic solvent or mixture, Acetonitrile",1360 µg/mL
same,solubility at 18 h,"[4]; organic solvent or mixture, Diethyl ether",10 µg/mL
same,solubility at 18 h,"[4]; organic solvent or mixture, Ethanol",35500 µg/mL
same,solubility at 18 h,"[4]; organic solvent or mixture, Ethyl acetate",40 µg/mL
same,solubility at 18 h,"[4]; organic solvent or mixture, Heptane",3 µg/mL
same,solubility at 18 h,"[4]; organic solvent or mixture, Isopropanol",1150 µg/mL
same,solubility at 18 h,"[4]; organic solvent or mixture, Methanol",481000 µg/mL
same,solubility at 18 h,"[4]; organic solvent or mixture, THF",50 µg/mL
same,solubility at 18 h,[4]; Water,28200 µg/mL
same,Stability to humidity 25° C./92% RH,[5]; 25° C./92% RH,unchanged
same,Stability to humidity 40° C./75% RH,[5]; 40° C./75% RH,unchanged
same,solubility at 24 h,[6],15 mg/mL
same,solubility at 1 h,"[7]; aqueous media, aqueous buffer, Aqueous pH 3",28.4 mg/mL
same,solubility at 1 h,[7]; [8],34 mg/mL
same,solubility at 18 h,[7]; [8],35.4 mg/mL
same,solubility at 1 h,[7]; [9],31.6 mg/mL
same,solubility at 18 h,[7]; [9],33.2 mg/mL
same,solubility at 18 h,"[7]; aqueous medium, aqueous buffer, Aqueous pH 3",28 mg/mL
same,solubility at 1 h,[7]; [10],28.1 mg/mL
same,solubility at 18 h,[7]; [10],27.8 mg/mL
same,solubility at 1 h,[7]; [11],18.6 mg/mL
same,solubility at 18 h,[7]; [11],27.9 mg/mL
